The assay relates to Mycobacterium tuberculosis. As to the kind of experiment: Antimycobacterial activity against isoniazid-resistant Mycobacterium tuberculosis by broth dilution assay. The format is functional. A general note: Dilution methods test growth across graded concentrations, often in twofold steps.

The results in this text go back to ChEMBL document CHEMBL1146385, “Discovery of novel phenoxyacetic acid derivatives as antimycobacterial agents” (2007).

Values after ≈ are worked out from the molar mass of the structure shown.

The term MIC denotes the lowest concentration found to suppress growth. `COc1cc(C2=NN(C(N)=O)C(c3ccccc3)C2)ccc1OCC(=O)O` (configuration not stated) gave an MIC of 6.12 µg/mL (≈ 16.6 µM).

Compound `COc1cc(C2=NN(C(N)=O)C(c3ccc(N)cc3)C2)ccc1OCC(=O)O` (configuration not stated) registered an MIC of 5.42 µg/mL (≈ 14.1 µM). The MIC values of the last two compounds are within 1.5-fold of each other.

In turn, `COc1cc(C2=NN(C(N)=O)C(c3ccccc3O)C2)ccc1OCC(=O)O` (configuration not stated) gave an MIC of 0.58 µg/mL (≈ 1.51 µM).

In turn, `COc1cc(C2=NN(C(N)=S)C(c3ccc(F)cc3)C2)ccc1OCC(=O)O` (configuration not stated) displayed a minimal inhibitory concentration (MIC) of 0.96 µg/mL (≈ 2.38 µM).

In turn, `COc1cc(C2=NN(C(N)=S)C(c3ccc(O)cc3)C2)ccc1OCC(=O)O` (configuration not stated) returned an MIC of 0.2 µg/mL (≈ 0.498 µM).

Turning to `COc1cc(C2=NN(C(N)=O)C(c3ccc(C)cc3)C2)ccc1OCC(=O)O` (configuration not stated), it took 6.25 µg/mL (≈ 16.3 µM) to inhibit growth (MIC).

Compound `COc1cc(C2=NN(C(N)=S)C(c3ccccc3)C2)ccc1OCC(=O)O` (configuration not stated) had an MIC of 6.25 µg/mL (≈ 16.2 µM).

`COc1cc(C2=NN(C(N)=O)C(c3ccc(Cl)cc3)C2)ccc1OCC(=O)O` (configuration not stated) displayed an MIC of 0.13 µg/mL (≈ 0.322 µM).

Consider `COc1cc(C2=NN(C(N)=O)C(c3ccc(F)cc3)C2)ccc1OCC(=O)O` (configuration not stated), for which the MIC worked out at 3.25 µg/mL (≈ 8.39 µM).

For `COc1cc(C2=NN(C(N)=S)C(c3ccccc3Cl)C2)ccc1OCC(=O)O` (configuration not stated), the MIC is 0.12 µg/mL (≈ 0.286 µM).

The compound `COc1cc(C2=NN(C(N)=O)C(c3cccc([N+](=O)[O-])c3)C2)ccc1OCC(=O)O` (configuration not stated) showed an MIC of 6.25 µg/mL (≈ 15.1 µM).

Turning to `COc1cc(C2=NN(C(N)=S)C(c3ccc(N)cc3)C2)ccc1OCC(=O)O` (configuration not stated), the MIC was found to be 12.5 µg/mL (≈ 31.2 µM). Compared with the last compound, the MIC is about 2-fold higher.

In the case of `COc1cc(C2=NN(C(N)=S)C(c3ccc(Cl)cc3)C2)ccc1OCC(=O)O` (configuration not stated), the MIC was 0.06 µg/mL (≈ 0.143 µM). Compared with the last compound, the MIC is about 210-fold lower.

Compound `COc1cc(C2=NN(C(N)=S)C(c3ccc(C)cc3)C2)ccc1OCC(=O)O` (configuration not stated) yielded an MIC of 6.15 µg/mL (≈ 15.4 µM).

Consider `COc1cc(C2=NN(C(N)=S)C(c3ccc([N+](=O)[O-])cc3)C2)ccc1OCC(=O)O` (configuration not stated), for which the lowest concentration to inhibit growth (MIC) was 6.25 µg/mL (≈ 14.5 µM). The MIC values of the last two compounds are within 1.5-fold of each other.

For the compound `COc1cc(C2=NN(C(N)=S)C(c3cccc([N+](=O)[O-])c3)C2)ccc1OCC(=O)O` (configuration not stated), the MIC is 3.12 µg/mL (≈ 7.25 µM).

Consider `COc1cc(C2=NN(C(N)=O)C(c3ccccc3Cl)C2)ccc1OCC(=O)O` (configuration not stated), for which the MIC is 1.26 µg/mL (≈ 3.12 µM).

`COc1cc(C2=NN(C(N)=S)C(Cc3ccccc3)C2)ccc1OCC(=O)O` (configuration not stated) returned an MIC of 6.25 µg/mL (≈ 15.6 µM).

In turn, `COc1cc(C2=NN(C(N)=O)C(Cc3ccccc3)C2)ccc1OCC(=O)O` (configuration not stated) gave an MIC of 6.25 µg/mL (≈ 16.3 µM).

`COc1cc(C2=NN(C(N)=S)C(c3ccccc3O)C2)ccc1OCC(=O)O` (configuration not stated): the MIC amounted to 0.58 µg/mL (≈ 1.44 µM).

Take `COc1cc(C2=NN(C(N)=O)C(c3ccc(O)cc3)C2)ccc1OCC(=O)O` (configuration not stated): the MIC came to 1.23 µg/mL (≈ 3.19 µM).

`COc1cc(C2=NN(C(N)=O)C(c3ccc([N+](=O)[O-])cc3)C2)ccc1OCC(=O)O` (configuration not stated) displayed an MIC of 6.25 µg/mL (≈ 15.1 µM). This MIC lies about 5.1-fold higher than the previous one.
